Assay results published in publication PMC10235067, “Increased renal elimination of endogenous and synthetic pyrimidine nucleosides in concentrative nucleoside transporter 1 deficient mice” (Nature Communications, 2023).

What was measured:
[1] = system: CNT1; conditions: for fold increase of content in urine of Slc28a1-/- mice: Slc28a1-/- vs Slc28a1+/+, urine collected over 12 h starvation, 8-week-old mice, n = 6; for Concentration in urine: Slc28a1+/+ and Slc28a1-/- mice; for Concentration in urine / concentration in urine, Slc28a1+/+ vs Slc28a1-/-: 12 h starvation
Protocol: (§1) Linearity was established for analytes over the concentration ranges observed and the lower limit of quantification of the LC–MS/MS assay was approximately 0.1 ng/ml for each analyte (Fig. S2).
(§2) Standard solutions of all nucleotide targets were serially diluted to generate calibration solutions at concentrations of 0.0, 0.0001, 0.001, 0.01, 0.1, 1.0, and 10 µg/ml. Urine samples were prepared by adding 20 µL of urine solution to 80 µL of 50:50 H2O:MeOH containing internal standard, vortexing and centrifuging at 20,000 × g; then, 50 µL aliquots were placed into glass vials, dried in a SpeedVac and reconstituted in 5% MeOH with 0.1% formic acid for injection.
(§3) Samples were quantified using a heated electrospray ionization source (HESI) on a Thermo Scientific TQS Quantiva triple quadrupole mass spectrometer, and separation was achieved using a Thermo Scientific Ultimate 3000 HPLC equipped with an Agilent 120 SB-C18 reversed-phase column (2 × 100 mm, 2.7 µm particle size) maintained at 40 °C. […] For all experiments, the capillary voltage was set to 4.5 kV with a capillary temperature of 350 °C, a vaporizer temperature of 100 °C, a sheath gas flow of 12, an auxiliary gas flow of 13, and a 1.6 sweep gas. For selected reaction monitoring (SRM) mode, Q1 and Q3 were set to 0.7 full width at half maximum (FWHM) resolution, a cycle time of 0.8 s, and a CID gas pressure of 1.5 mTorr.

[2] = biological target: T1, CNT1 (Mus musculus, UniProt E9PXX9); conditions: Slc28a1+/+ (CNT1 WT) mice, urine, one value per animal; Figure 2D-F source data
T1 sequence (E9PXX9 1-648): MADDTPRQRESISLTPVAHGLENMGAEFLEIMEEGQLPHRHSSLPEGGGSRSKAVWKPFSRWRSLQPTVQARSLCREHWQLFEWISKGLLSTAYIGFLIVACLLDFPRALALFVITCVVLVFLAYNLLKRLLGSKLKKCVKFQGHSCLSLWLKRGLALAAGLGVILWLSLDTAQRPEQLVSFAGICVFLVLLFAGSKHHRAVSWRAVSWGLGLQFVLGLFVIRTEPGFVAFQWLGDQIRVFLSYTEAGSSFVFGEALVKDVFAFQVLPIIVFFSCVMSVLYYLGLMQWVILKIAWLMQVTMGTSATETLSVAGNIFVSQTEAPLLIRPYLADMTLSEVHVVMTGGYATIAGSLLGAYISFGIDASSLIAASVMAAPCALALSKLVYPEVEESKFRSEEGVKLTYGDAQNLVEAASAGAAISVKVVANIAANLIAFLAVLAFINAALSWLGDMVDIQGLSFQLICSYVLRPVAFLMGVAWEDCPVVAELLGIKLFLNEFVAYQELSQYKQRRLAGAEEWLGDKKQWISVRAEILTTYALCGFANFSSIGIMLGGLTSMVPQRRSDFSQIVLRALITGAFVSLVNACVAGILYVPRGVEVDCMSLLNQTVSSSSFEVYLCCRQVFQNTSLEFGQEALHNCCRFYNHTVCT
Protocol: as §1, §2, §3

[3] = Gemcitabine plasma pharmacokinetics in Slc28a1+/+ and Slc28a1-/- mice; conditions: Slc28a1+/+ and Slc28a1-/- mice; single i.v. dFdC 50 mg/kg
[4] = Gemcitabine urine pharmacokinetics (renal excretion) in Slc28a1+/+ and Slc28a1-/- mice; conditions: WT and KO mouse urine pooled 10 min to 2 h after dFdC 50 mg/kg i.v.
Protocol: THU was added to the mouse urine samples upon collection and frozen until analysis. […] Five microliters of the diluted samples were transferred to a 96-well autosampler plate then 10 µL of internal standard mixture was added and mixed. […] The plate was then transferred to the 4 °C autosampler for analysis.
The chromatographic separation was performed on a Thermo Accucore aQ 2.6 µm, 100 ×2.1 mm column at 30 °C using a gradient with a 10 µL injection volume. The mobiles phases were 1 mM ammonium acetate in deionized water pH 6.8 and acetonitrile. The total run time was 5.5 min. […] The LC–MS/MS analysis was conducted on a Thermo Vanquish UHPLC with a TSQ Quantiva mass spectrometer equipped with an electrospray ionization source.

[5] = system: dihydropyrimidine dehydrogenase (DPD); conditions: cited from earlier work

O=c1cc[nH]c(=O)[nH]1 [Uracil]
fold increase of content in urine of Slc28a1-/- mice [1]: 4.6 fold

Nc1ncnc2c1ncn2[C@H]1C[C@H](O)[C@@H](CO)O1 [deoxyadenosine]
Urine level of nucleoside / deoxynucleoside / nucleobase, CNT1 WT Urine (individual mice) [2]: 0
Concentration in urine [1]: undetectable

Nc1nc2c(ncn2[C@@H]2O[C@H](CO)[C@@H](O)[C@H]2O)c(=O)[nH]1 [Guanosine]
concentration in urine, Slc28a1+/+ vs Slc28a1-/- [1]: not significantly different

O=c1ccn([C@H]2C[C@H](O)[C@@H](CO)O2)c(=O)[nH]1 [deoxyuridine]
fold increase of content in urine of Slc28a1-/- mice [1]: 2.4 fold

Nc1nc2c(ncn2[C@H]2C[C@H](O)[C@@H](CO)O2)c(=O)[nH]1 [deoxyguanosine]
Concentration in urine [1]: undetectable

Nc1ccn([C@@H]2O[C@H](CO)[C@@H](O)[C@H]2O)c(=O)n1 [cytidine]
fold increase of content in urine of Slc28a1-/- mice [1]: 52.9 fold

Nc1ccn([C@H]2C[C@H](O)[C@@H](CO)O2)c(=O)n1 [Deoxycytidine]
fold increase of content in urine of Slc28a1-/- mice [1]: 44.8 fold

Nc1ccn([C@@H]2O[C@H](COP(=O)(O)OP(=O)(O)OP(=O)(O)O)[C@@H](O)C2(F)F)c(=O)n1 [dFdC-TP, dFdC triphosphate]
plasma level after dFdC dosing [3]: did not detect appreciable quantities
level in urine after dFdC dosing [4]: below the limits of quantification

O=c1ccn([C@@H]2O[C@H](CO)[C@@H](O)[C@H]2O)c(=O)[nH]1 [uridine]
fold increase of content in urine of Slc28a1-/- mice [1]: 5.9 fold

Cc1cn([C@H]2C[C@H](O)[C@@H](CO)O2)c(=O)[nH]c1=O [Thymidine]
fold increase of content in urine of Slc28a1-/- mice [1]: 7.5 fold

O=c1[nH]cc(F)c(=O)[nH]1 [5’-fluorouracil]
share of elimination mediated by DPD through hepatic metabolism [5]: 80%

Nc1ncnc2c1ncn2[C@@H]1O[C@H](CO)[C@@H](O)[C@H]1O [Adenosine]
concentration in urine, Slc28a1+/+ vs Slc28a1-/- [1]: not significantly different
